Read-outs that look alike come from different tables or passages of the source.

The target in test [1] is GST-hRIPK1 (8-327) (Homo sapiens (Human), UniProt Q13546). In words: Fluorescent Polarization Binding (FP Binding) assay.
The subject of test [2] is FADD-deficient Jurkat cells. In words: Cellular necroptosis assay (human TNFα-induced necrosis, CellTiter-Glo). Type of test: cell-based. The conditions noted are these: 48 h. For orientation: ATP-based viability assays read luminescence as a measure of living cells.
The mark [3] stands for this setting: Homo sapiens, Jurkat, TNFα 10 ng/mL, read-out: Cell IC50.

Sequence of GST-hRIPK1 (8-327) (Q13546 8-327): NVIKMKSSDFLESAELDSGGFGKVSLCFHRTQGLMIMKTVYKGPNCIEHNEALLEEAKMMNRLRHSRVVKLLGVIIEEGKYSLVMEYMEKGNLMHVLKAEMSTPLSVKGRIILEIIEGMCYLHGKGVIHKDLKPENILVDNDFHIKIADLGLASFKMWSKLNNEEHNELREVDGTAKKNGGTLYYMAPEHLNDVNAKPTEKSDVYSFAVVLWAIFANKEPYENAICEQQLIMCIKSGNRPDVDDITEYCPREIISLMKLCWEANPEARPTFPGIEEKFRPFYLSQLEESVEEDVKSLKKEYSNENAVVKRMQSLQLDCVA

Regarding `O=C(N[C@H]1CCc2ccccc2-n2ccnc21)c1cc(Cc2ccccc2)on1` [Example 30, (S)-5-benzyl-N-(5,6-dihydro-4H-benzo[f]imidazo[1,2-a]azepin-4-yl)isoxazole-3-carboxamide], the IC50 in test [1] and in test [2] (setting [3]) was 0.0001 to 1 µM each time.
For the molecule `C[C@H]1Oc2cccnc2N(C)C(=O)[C@H]1NC(=O)c1nn(Cc2ccc(F)cc2)cc1F` [Example 143, N-((2R,3S)-2,5-dimethyl-4-oxo-2,3,4,5-tetrahydropyrido[3,2-b][1,4]oxazepin-3-yl)-4-fluoro-1-(4-fluorobenzyl)-1H-pyrazole-3-carboxamide], the IC50 in test [1] and in test [2] (setting [3]) was 0.0001 to 1 µM each time.
With `CN1C(=O)[C@@H](NC(=O)c2nn(Cc3ccccn3)cc2F)COc2ccccc21` [Example 55, (S)-4-fluoro-N-(5-methyl-4-oxo-2,3,4,5-tetrahydrobenzo[b][1,4]oxazepin-3-yl)-1-(pyridin-2-ylmethyl)-1H-pyrazole-3-carboxamide], the IC50 in test [1] and in test [2] (setting [3]) was 0.0001 to 1 µM throughout.
On to `CN1C(=O)[C@@H](NC(=O)c2nn(Cc3ccccc3)cc2F)CCc2nn(C)cc21` [Example 109A, (S)-1-benzyl-N-(2,4-dimethyl-5-oxo-2,4,5,6,7,8-hexahydropyrazolo[4,3-b]azepin-6-yl)-4-fluoro-1H-pyrazole-3-carboxamide], for which the IC50 in test [1] and in test [2] (setting [3]) was 0.0001 to 1 µM throughout.
For `CN1C(=O)[C@@H](NC(=O)c2nnc(C3(c4ccccc4)CC3)o2)CCc2cccnc21` [Example 145A, (S)—N-(9-methyl-8-oxo-6,7,8,9-tetrahydro-5H-pyrido[2,3-b]azepin-7-yl)-5-(1-phenylcyclopropyl)-1,3,4-oxadiazole-2-carboxamide], the IC50 in test [1] and in test [2] (setting [3]) was 0.0001 to 1 µM in each case.
Turning to `CN1C(=O)[C@@H](NC(=O)c2nn(Cc3ccc(F)cc3)cc2F)COc2cccnc21` [Example 115, (S)-4-fluoro-1-(4-fluorobenzyl)-N-(5-methyl-4-oxo-2,3,4,5-tetrahydropyrido[3,2-b][1,4]oxazepin-3-yl)-1H-pyrazole-3-carboxamide], the IC50 in test [1] and in test [2] (setting [3]) was 0.0001 to 1 µM in each case.
Take `CN1C(=O)[C@@H](NC(=O)c2nnc(Cc3ccccc3)o2)[C@H]2C[C@H]2c2cccnc21` [Example 157B, 5-benzyl-N-((1aS,2S,8bR)-4-methyl-3-oxo-1,1a,2,3,4,8b-hexahydrocyclopropa[d]pyrido[2,3-b]azepin-2-yl)-1,3,4-oxadiazole-2-carboxamide]: the IC50 in test [1] and in test [2] (setting [3]) was 0.0001 to 1 µM throughout.
Turning to `CN1C(=O)[C@@H](NC(=O)c2nnc(Cc3ccccc3)[nH]2)COc2c(Cl)cccc21` [Example 32, (S)-5-benzyl-N-(9-chloro-5-methyl-4-oxo-2,3,4,5-tetrahydrobenzo[b][1,4]oxazepin-3-yl)-4H-1,2,4-triazole-3-carboxamide], the IC50 in test [1] and in test [2] (setting [3]) was 0.0001 to 1 µM each time.
Regarding `CN1C(=O)[C@@H](NC(=O)c2nn(Cc3cncc(F)c3)cc2F)COc2cccnc21` [Example 137, (S)-4-Fluoro-1-((5-fluoropyridin-3-yl)methyl)-N-(5-methyl-4-oxo-2,3,4,5-tetrahydropyrido[3,2-b][1,4]oxazepin-3-yl)-1H-pyrazole-3-carboxamide], the IC50 in test [1] and in test [2] (setting [3]) was 0.0001 to 1 µM in each case.
Take `O=C(N[C@H]1COc2cccnc2NC1=O)c1nn(Cc2ccccc2)cc1F` [Example 57, (S)-1-benzyl-4-fluoro-N-(4-oxo-2,3,4,5-tetrahydropyrido[3,2-b][1,4]oxazepin-3-yl)-1H-pyrazole-3-carboxamide]: the IC50 in test [1] and in test [2] (setting [3]) was 0.0001 to 1 µM in each case.
As to `C[C@H]1Oc2cc(C#N)cnc2N(C)C(=O)[C@H]1NC(=O)c1nnc(Cc2ccccc2)[nH]1` [Example 150, 5-benzyl-N-((2R,3S)-8-cyano-2,5-dimethyl-4-oxo-2,3,4,5-tetrahydropyrido[3,2-b][1,4]oxazepin-3-yl)-4H-1,2,4-triazole-3-carboxamide], the IC50 in test [1] and in test [2] (setting [3]) was 0.0001 to 1 µM throughout.
Regarding `Cc1c(F)c(C(=O)N[C@H]2COc3ccccc3N(C)C2=O)nn1Cc1ccccc1` [Example 6, (S)-1-benzyl-4-fluoro-5-methyl-N-(5-methyl-4-oxo-2,3,4,5-tetrahydrobenzo[b][1,4]oxazepin-3-yl)-1H-pyrazole-3-carboxamide], the IC50 in test [1] and in test [2] (setting [3]) was 0.0001 to 1 µM each time.
For the molecule `CN1C(=O)[C@@H](NC(=O)c2nnc(C3(c4ccccc4)CC3)s2)COc2ccccc21` [Example 58, (S)—N-(5-methyl-4-oxo-2,3,4,5-tetrahydrobenzo[b][1,4]oxazepin-3-yl)-5-(1-phenylcyclopropyl)-1,3,4-thiadiazole-2-carboxamide], the IC50 in test [1] and in test [2] (setting [3]) was 0.0001 to 1 µM in each case.
For the molecule `CN1C(=O)[C@@H](NC(=O)c2nnc(Cc3ccccc3)[nH]2)COc2c(C#N)cccc21` [Example 56, (S)-5-benzyl-N-(9-cyano-5-methyl-4-oxo-2,3,4,5-tetrahydrobenzo[b][1,4]oxazepin-3-yl)-2H-1,2,4-triazole-3-carboxamide], the IC50 in test [1] and in test [2] (setting [3]) was 0.0001 to 1 µM each time.
With `O=C(N[C@H]1CCc2ccccc2-n2cnnc21)c1cc(Cc2ccccc2)on1` [Example 71A, (S)-5-benzyl-N-(5,6-dihydro-4H-benzo[f][11,2,4]triazolo[4,3-a]azepin-4-yl)isoxazole-3-carboxamide], in test [2] (setting [3]), the IC50 fell in the range of 0.0001 to 1 µM.
For the molecule `O=C(N[C@H]1CCc2ccccc2-n2cnnc21)c1nnc(Cc2ccccc2)[nH]1` [Example 69A, (S)-5-benzyl-N-(5,6-dihydro-4H-benzo[f][1,2,4]triazolo[4,3-a]azepin-4-yl)-4H-1,2,4-triazole-3-carboxamide], the IC50 in test [2] (setting [3]) was 0.0001 to 1 µM.
Still for that read-out and setting: to `CN1C(=O)[C@@H](NC(=O)c2nn(Cc3ccc(F)cn3)cc2F)COc2ccccc21` [Example 214, (S)-4-fluoro-1-((5-fluoropyridin-2-yl)methyl)-N-(5-methyl-4-oxo-2,3,4,5-tetrahydrobenzo[b][1,4]oxazepin-3-yl)-1H-pyrazole-3-carboxamide] belongs 0.0001 to 1 µM; to `CN1C(=O)[C@@H](NC(=O)c2cnc(C3(c4ccccc4)CC3)[nH]2)COc2ccccc21` [Example 88, (S)—N-(5-methyl-4-oxo-2,3,4,5-tetrahydrobenzo[b][1,4]oxazepin-3-yl)-2-(1-phenylcyclopropyl)-1H-imidazole-5-carboxamide], 1 to 10 µM.
As for `CN1C(=O)[C@@H](NC(=O)c2nnc(Cc3ccc(F)cc3)o2)[C@H]2C[C@H]2c2nccnc21` [Example 223, 5-(4-fluorobenzyl)-N-((7S,7aS,8aR)-5-methyl-6-oxo-5,6,7,7a,8,8a-hexahydrocyclopropa[d]pyrazino[2,3-b]azepin-7-yl)-1,3,4-oxadiazole-2-carboxamide], in test [2] (setting [3]), the IC50 fell in the range of 0.0001 to 1 µM.
Turning to `O=C(N[C@H]1CCc2ccccc2-n2ccnc21)c1nnc(Cc2ccccc2)[nH]1` [Example 52, (S)-5-benzyl-N-(5,6-dihydro-4H-benzo[f]imidazo[1,2-a]azepin-4-yl)-4H-1,2,4-triazole-3-carboxamide], the IC50 in test [2] (Homo sapiens, Jurkat, read-out: Cell IC50, TNFα 10 ng/mL, 48 h) lay within 0.0001 to 1 µM.
As to `CN1C(=O)[C@@H](NC(=O)c2ncc(Cc3ccccc3)s2)COc2cccnc21` [Example 86, (S)-5-benzyl-N-(5-methyl-4-oxo-2,3,4,5-tetrahydropyrido[3,2-b][1,4]oxazepin-3-yl)thiazole-2-carboxamide], in test [2] (setting [3]), the IC50 was in the range of 0.0001 to 1 µM.
Turning to `O=C(N[C@H]1COc2ccccc2-n2ccnc21)c1nnc(Cc2ccccc2)[nH]1` [Example 68A, (R)-5-benzyl-N-(4,5-dihydrobenzo[b]imidazo[1,2-d][1,4]oxazepin-4-yl)-4H-1,2,4-triazole-3-carboxamide], in test [2] (setting [3]), the IC50 is 0.0001 to 1 µM.
The same measure, in the same setting: the value for `CN1C(=O)[C@@H](NC(=O)c2nnc(Cc3ccccc3)[nH]2)[C@H]2C[C@H]2c2cc(C#N)cnc21` [Example 218, 5-benzyl-N-((1aS,2S,8bR)-7-cyano-4-methyl-3-oxo-1,1a,2,3,4,8b-hexahydrocyclopropa[d]pyrido[2,3-b]azepin-2-yl)-4H-1,2,4-triazole-3-carboxamide] was 0.0001 to 1 µM.
On to `CN1C(=O)[C@@H](NC(=O)c2nn(Cc3ccccc3)cc2F)COc2ccccc21` [Example 64, (S)-1-benzyl-4-fluoro-N-(5-methyl-4-oxo-2,3,4,5-tetrahydrobenzo[b][1,4]oxazepin-3-yl)-1H-pyrazole-3-carboxamide], for which the IC50 in test [2] (setting [3]) was 0.0001 to 1 µM.
As for `CN1C(=O)[C@@H](NC(=O)c2nnc(Cc3ccccc3)[nH]2)C[C@H](F)c2ccccc21` (mixture of isomers) [Example 12A, 5-benzyl-N-((3S,5S)-5-fluoro-1-methyl-2-oxo-2,3,4,5-tetrahydro-1H-benzo[b]azepin-3-yl)-4H-1,2,4-triazole-3-carboxamide and 5-benzyl-N-((3R,5R)-5-fluoro-1-methyl-2-oxo-2,3,4,5-tetrahydro-1H-benzo[b]azepin-3-yl)-4H-1,2,4-triazole-3-carboxamide], in test [2] (TNFα 10 ng/mL, read-out: Cell IC50), the IC50 was in the range of 0.0001 to 1 µM.
As for `C[C@H]1Oc2cccnc2N(C)C(=O)[C@H]1NC(=O)c1nnc(Cc2ccccc2)s1` [Example 217, 5-benzyl-N-((2R,3S)-2,5-dimethyl-4-oxo-2,3,4,5-tetrahydropyrido[3,2-b][1,4]oxazepin-3-yl)-1,3,4-thiadiazole-2-carboxamide], the IC50 in test [2] (setting [3]) was in the range of 0.0001 to 1 µM.
In the case of `CN1C(=O)[C@@H](NC(=O)c2nn(Cc3ccccc3)cc2F)COc2cccnc21` [Example 76, (S)-1-benzyl-4-fluoro-N-(5-methyl-4-oxo-2,3,4,5-tetrahydropyrido[3,2-b][1,4]oxazepin-3-yl)-1H-pyrazole-3-carboxamide], in test [2] (setting [3]), the IC50 is 0.0001 to 1 µM.
The same measure, in the same setting: to `CN1C(=O)[C@@H](NC(=O)c2nc3cccc(-c4ccccc4F)c3s2)COc2ccccc21` [Example 79, (S)-7-(2-fluorophenyl)-N-(5-methyl-4-oxo-2,3,4,5-tetrahydrobenzo[b][1,4]oxazepin-3-yl)benzo[d]thiazole-2-carboxamide] belongs 0.0001 to 1 µM.

These data come from patent US10604535B2, “Compounds, compositions and methods” (Denali Therapeutics Inc., priority 2016, dated 2020).
